From the kinase profiling compilation of Christmann-Franck et al. (2016)

Legend:
Experiment in all cases: radiometric filter-binding kinase assay, Kinase HotSpot
Settings in all cases: compound 0.5 µM; ATP 10 µM
ADRBK1 (human) = ADRBK1 (human) (UniProt P25098)
AKT2 (human) = AKT2 (human) (UniProt P31751)
AURKC (human) = AURKC (human) (UniProt Q9UQB9)
BTK (human) = BTK (human) (UniProt Q06187)
CAMK2G (human) = CAMK2G (human) (UniProt Q13555)
CAMKK1 (human) = CAMKK1 (human) (UniProt Q8N5S9)
CDK2 CCNA2 (human) = CDK2 CCNA2 (human) (UniProt P24941+P20248)
CDK2 CCNE1 (human) = CDK2 CCNE1 (human) (UniProt P24941+P24864)
CDK4 CCND3 (human) = CDK4 CCND3 (human) (UniProt P30281+P11802)
CDK5 CDK5R1 p35 (human) = CDK5 CDK5R1 p35 (human) (UniProt Q00535+Q15078)
CHUK (human) = CHUK (human) (UniProt O15111)
Sequence of CHUK (human) (O15111 whole entry, looked up): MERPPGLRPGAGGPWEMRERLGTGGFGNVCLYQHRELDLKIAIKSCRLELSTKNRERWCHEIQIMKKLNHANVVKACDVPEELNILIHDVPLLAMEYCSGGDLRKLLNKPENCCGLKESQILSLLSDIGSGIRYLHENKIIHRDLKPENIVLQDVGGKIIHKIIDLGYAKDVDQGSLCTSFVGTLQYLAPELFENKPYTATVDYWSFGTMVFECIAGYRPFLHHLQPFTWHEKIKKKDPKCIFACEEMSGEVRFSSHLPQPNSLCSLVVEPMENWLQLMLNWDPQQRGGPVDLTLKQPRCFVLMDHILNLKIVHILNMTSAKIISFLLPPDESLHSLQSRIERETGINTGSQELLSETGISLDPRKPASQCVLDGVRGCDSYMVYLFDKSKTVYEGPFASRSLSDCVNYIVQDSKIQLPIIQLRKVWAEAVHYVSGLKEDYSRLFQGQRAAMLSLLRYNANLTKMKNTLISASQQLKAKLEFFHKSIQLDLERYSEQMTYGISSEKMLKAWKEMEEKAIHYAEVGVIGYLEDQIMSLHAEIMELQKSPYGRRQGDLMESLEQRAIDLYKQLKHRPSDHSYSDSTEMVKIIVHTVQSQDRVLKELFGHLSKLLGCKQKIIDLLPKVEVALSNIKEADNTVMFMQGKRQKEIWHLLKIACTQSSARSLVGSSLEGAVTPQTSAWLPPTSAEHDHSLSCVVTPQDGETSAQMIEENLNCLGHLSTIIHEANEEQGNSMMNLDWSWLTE

CSNK1D (human) = CSNK1D (human) (UniProt P48730)
FLT1 (human) = FLT1 (human) (UniProt P17948)
FYN (human) = FYN (human) (UniProt P06241)
Sequence of FYN (human) (P06241 whole entry, looked up): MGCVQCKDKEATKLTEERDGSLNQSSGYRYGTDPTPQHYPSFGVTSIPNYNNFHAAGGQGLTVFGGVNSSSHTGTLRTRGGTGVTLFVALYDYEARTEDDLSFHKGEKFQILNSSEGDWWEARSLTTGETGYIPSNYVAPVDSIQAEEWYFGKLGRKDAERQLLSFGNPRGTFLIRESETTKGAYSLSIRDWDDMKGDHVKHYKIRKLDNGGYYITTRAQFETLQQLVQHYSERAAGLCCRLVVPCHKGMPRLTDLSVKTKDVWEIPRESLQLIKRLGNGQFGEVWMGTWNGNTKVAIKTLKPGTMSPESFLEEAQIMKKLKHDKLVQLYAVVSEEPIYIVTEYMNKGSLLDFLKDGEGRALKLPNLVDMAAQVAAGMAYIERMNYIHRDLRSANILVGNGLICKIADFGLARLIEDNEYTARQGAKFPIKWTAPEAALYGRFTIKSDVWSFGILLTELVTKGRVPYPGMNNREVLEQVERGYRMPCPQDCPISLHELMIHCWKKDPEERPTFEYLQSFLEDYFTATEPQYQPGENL

GSG2 (human) = GSG2 (human) (UniProt Q8TF76)
GSK3B (human) = GSK3B (human) (UniProt P49841)
HIPK1 (human) = HIPK1 (human) (UniProt Q86Z02)
Sequence of HIPK1 (human) (Q86Z02 whole entry, looked up): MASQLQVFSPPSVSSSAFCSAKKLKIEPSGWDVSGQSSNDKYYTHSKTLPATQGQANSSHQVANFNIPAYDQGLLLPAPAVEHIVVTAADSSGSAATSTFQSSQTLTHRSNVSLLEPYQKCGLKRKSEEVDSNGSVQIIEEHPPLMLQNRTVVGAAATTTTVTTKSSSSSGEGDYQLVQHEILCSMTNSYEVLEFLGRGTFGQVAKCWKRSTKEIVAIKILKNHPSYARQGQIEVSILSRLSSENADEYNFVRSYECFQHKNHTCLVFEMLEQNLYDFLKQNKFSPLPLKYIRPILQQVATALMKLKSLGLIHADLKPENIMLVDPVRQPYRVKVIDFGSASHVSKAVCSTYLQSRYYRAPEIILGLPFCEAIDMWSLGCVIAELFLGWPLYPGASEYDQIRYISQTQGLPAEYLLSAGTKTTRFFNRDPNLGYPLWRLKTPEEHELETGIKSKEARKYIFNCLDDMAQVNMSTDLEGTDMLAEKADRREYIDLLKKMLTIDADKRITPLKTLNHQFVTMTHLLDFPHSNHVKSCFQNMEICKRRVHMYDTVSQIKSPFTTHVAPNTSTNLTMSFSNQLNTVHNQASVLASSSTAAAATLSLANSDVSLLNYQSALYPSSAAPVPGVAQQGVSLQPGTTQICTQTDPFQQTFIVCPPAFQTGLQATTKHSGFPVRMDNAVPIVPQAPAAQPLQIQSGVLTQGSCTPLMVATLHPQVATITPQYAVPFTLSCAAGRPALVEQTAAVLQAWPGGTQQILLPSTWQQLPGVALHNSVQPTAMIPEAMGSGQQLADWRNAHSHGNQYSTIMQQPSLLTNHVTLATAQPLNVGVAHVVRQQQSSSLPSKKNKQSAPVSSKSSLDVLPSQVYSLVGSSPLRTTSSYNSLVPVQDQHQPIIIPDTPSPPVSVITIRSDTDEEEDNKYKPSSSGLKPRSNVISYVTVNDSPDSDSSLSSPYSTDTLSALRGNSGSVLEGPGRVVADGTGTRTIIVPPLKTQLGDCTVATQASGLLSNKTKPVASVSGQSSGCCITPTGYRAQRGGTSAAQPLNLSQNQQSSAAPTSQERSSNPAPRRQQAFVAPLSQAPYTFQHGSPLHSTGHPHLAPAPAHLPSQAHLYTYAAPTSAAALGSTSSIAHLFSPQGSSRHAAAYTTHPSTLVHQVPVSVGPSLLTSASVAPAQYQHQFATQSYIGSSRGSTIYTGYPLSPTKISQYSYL

HIPK4 (human) = HIPK4 (human) (UniProt Q8NE63)
IRAK1 (human) = IRAK1 (human) (UniProt P51617)
ITK (human) = ITK (human) (UniProt Q08881)
JAK2 JH1 JH2 (human) = JAK2 JH1 JH2 (human) (UniProt O60674)
MAP3K10 (human) = MAP3K10 (human) (UniProt Q02779)
MAP3K14 (human) = MAP3K14 (human) (UniProt Q99558)
MAP3K5 (human) = MAP3K5 (human) (UniProt Q99683)
MAP4K4 (human) = MAP4K4 (human) (UniProt O95819)
MAPK13 (human) = MAPK13 (human) (UniProt O15264)
MERTK (human) = MERTK (human) (UniProt Q12866)
Sequence of MERTK (human) (Q12866 whole entry, looked up): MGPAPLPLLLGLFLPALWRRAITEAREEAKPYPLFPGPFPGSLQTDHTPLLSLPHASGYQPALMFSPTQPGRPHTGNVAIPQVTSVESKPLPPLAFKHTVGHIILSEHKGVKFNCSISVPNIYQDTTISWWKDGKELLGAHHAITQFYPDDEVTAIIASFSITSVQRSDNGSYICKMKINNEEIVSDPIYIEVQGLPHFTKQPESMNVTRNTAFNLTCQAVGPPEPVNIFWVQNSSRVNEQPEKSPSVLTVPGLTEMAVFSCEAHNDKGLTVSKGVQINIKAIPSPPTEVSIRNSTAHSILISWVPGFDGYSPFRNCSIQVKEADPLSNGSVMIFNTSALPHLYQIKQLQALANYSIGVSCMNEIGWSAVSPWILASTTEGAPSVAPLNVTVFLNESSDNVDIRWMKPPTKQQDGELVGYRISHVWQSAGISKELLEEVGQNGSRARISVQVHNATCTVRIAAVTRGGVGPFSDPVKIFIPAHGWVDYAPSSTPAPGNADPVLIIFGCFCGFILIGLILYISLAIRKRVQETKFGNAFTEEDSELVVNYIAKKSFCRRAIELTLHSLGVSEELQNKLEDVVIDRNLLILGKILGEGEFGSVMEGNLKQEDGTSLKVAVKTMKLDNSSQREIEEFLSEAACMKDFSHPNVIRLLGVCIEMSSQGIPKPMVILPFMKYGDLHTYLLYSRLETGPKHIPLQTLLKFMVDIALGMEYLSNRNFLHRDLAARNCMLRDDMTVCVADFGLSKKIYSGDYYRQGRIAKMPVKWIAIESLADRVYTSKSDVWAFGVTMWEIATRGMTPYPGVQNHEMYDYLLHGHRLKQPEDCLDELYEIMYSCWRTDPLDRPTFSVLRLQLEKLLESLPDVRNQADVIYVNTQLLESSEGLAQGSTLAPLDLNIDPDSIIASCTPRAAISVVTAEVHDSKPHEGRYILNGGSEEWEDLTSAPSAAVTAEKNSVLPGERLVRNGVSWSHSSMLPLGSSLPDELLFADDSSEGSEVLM

NEK2 (human) = NEK2 (human) (UniProt P51955)
NTRK1 (human) = NTRK1 (human) (UniProt P04629)
NUAK2 (human) = NUAK2 (human) (UniProt Q9H093)
Sequence of NUAK2 (human) (Q9H093 whole entry, looked up): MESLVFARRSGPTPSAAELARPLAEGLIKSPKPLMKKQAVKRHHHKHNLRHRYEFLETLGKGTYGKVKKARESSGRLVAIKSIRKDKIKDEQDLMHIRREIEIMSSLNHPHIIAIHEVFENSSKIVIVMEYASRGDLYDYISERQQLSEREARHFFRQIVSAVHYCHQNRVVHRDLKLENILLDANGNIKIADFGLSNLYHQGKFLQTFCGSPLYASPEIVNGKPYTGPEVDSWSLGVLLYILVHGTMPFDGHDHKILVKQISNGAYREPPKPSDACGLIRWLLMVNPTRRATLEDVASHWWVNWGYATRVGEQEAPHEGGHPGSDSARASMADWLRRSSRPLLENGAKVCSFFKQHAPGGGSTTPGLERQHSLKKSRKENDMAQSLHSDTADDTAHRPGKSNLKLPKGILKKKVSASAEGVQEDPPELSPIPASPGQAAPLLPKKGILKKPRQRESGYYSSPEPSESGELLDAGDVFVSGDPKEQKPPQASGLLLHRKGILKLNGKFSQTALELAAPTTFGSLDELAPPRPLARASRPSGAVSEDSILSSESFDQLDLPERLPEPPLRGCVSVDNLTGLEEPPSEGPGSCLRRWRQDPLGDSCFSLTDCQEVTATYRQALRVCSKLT

PBK (human) = PBK (human) (UniProt Q96KB5)
PKN1 (human) = PKN1 (human) (UniProt Q16512)
PLK2 (human) = PLK2 (human) (UniProt Q9NYY3)
RAF1 (human) = RAF1 (human) (UniProt P04049)
SRPK2 (human) = SRPK2 (human) (UniProt P78362)
SRPK3 (human) = SRPK3 (human) (UniProt Q9UPE1)
STK4 (human) = STK4 (human) (UniProt Q13043)
SYK (human) = SYK (human) (UniProt P43405)
TSSK1B (human) = TSSK1B (human) (UniProt Q9BXA7)
TSSK2 (human) = TSSK2 (human) (UniProt Q96PF2)
[1] = target: TYK2 JH1 catalytic (human) (UniProt P29597)
ZAP70 (human) = ZAP70 (human) (UniProt P43403)

Sequence of BTK (human) (Q06187 whole entry, looked up): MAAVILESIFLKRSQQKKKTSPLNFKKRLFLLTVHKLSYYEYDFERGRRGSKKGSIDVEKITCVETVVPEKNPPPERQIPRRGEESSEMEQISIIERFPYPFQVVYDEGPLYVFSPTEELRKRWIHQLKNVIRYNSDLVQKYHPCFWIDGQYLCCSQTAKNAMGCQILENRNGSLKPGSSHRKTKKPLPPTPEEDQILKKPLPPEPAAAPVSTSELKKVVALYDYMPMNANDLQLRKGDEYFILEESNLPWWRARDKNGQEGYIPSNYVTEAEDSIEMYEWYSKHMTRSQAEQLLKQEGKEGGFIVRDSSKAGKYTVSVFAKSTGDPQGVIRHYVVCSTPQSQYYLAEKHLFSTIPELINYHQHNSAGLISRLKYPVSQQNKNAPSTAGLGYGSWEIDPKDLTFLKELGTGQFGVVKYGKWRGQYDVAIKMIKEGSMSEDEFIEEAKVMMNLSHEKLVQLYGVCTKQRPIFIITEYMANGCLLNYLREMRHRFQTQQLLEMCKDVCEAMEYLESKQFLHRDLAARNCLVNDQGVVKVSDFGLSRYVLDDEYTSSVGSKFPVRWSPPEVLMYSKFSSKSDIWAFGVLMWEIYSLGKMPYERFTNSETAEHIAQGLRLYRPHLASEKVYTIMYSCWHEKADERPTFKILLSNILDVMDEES

Q: `COc1cc2ncnc(N3CCN(C(=O)Nc4ccc(Oc5ccccc5)cc4)CC3)c2cc1OC` was tested. Which residual activity (ADRBK1 (human)) did it give?
A: 96.7%

Q: And the residual activity (AKT2 (human))?
A: 87.6%

Q: What about the residual activity (AURKC (human)) of the same compound?
A: 90.3%

Q: And the residual activity (BTK (human))?
A: 87.8%

Q: What about the residual activity (CAMK2G (human)) of the same compound?
A: 100%

Q: And the residual activity (CAMKK1 (human))?
A: 92.9%

Q: What about the residual activity (CDK2 CCNA2 (human)) of the same compound?
A: 93.1%

Q: And the residual activity (CDK2 CCNE1 (human))?
A: 92.1%

Q: And the residual activity (CDK4 CCND3 (human))?
A: 90.3%

Q: What about the residual activity (CDK5 CDK5R1 p35 (human)) of the same compound?
A: 99.8%

Q: And the residual activity (CHUK (human))?
A: 96%

Q: What about the residual activity (CSNK1D (human)) of the same compound?
A: 103%

Q: What about the residual activity (FLT1 (human)) of the same compound?
A: 79%

Q: And the residual activity (FYN (human))?
A: 112%

Q: And the residual activity (GSG2 (human))?
A: 93.2%

Q: What about the residual activity (GSK3B (human)) of the same compound?
A: 99%

Q: What about the residual activity (HIPK1 (human)) of the same compound?
A: 96.9%

Q: And the residual activity (HIPK4 (human))?
A: 75.4%

Q: What about the residual activity (IRAK1 (human)) of the same compound?
A: 116%

Q: And the residual activity (ITK (human))?
A: 88.1%

Q: And the residual activity (JAK2 JH1 JH2 (human))?
A: 99.3%

Q: What about the residual activity (MAP3K10 (human)) of the same compound?
A: 92%

Q: And the residual activity (MAP3K14 (human))?
A: 105%

Q: What about the residual activity (MAP3K5 (human)) of the same compound?
A: 102%

Q: And the residual activity (MAP4K4 (human))?
A: 88.4%

Q: What about the residual activity (MAPK13 (human)) of the same compound?
A: 104%

Q: What about the residual activity (MERTK (human)) of the same compound?
A: 60%

Q: What about the residual activity (NEK2 (human)) of the same compound?
A: 81.3%

Q: And the residual activity (NTRK1 (human))?
A: 90.6%

Q: What about the residual activity (NUAK2 (human)) of the same compound?
A: 77.4%

Q: What about the residual activity (PBK (human)) of the same compound?
A: 85.8%

Q: What about the residual activity (PKN1 (human)) of the same compound?
A: 103%

Q: And the residual activity (PLK2 (human))?
A: 105%

Q: And the residual activity (RAF1 (human))?
A: 88%

Q: What about the residual activity (SRPK2 (human)) of the same compound?
A: 89.1%

Q: And the residual activity (SRPK3 (human))?
A: 97.3%

Q: And the residual activity (STK4 (human))?
A: 97.1%

Q: What about the residual activity (SYK (human)) of the same compound?
A: 93.2%

Q: What about the residual activity (TSSK1B (human)) of the same compound?
A: 65.2%

Q: And the residual activity (TSSK2 (human))?
A: 79.1%

Q: And the residual activity [1]?
A: 83.1%

Q: And the residual activity (ZAP70 (human))?
A: 100%
